# Measurements from patent publication US12590099B2, “Inhibitors of histone deacetylase useful for the treatment or prevention of HIV infection” (Merck Sharp & Dohme LLC, priority 2018, dated 2026).
# Where two headings read alike, the source gives them in different places.
# Key:
# Recombinant human HDAC2 = target: T1, Recombinant human HDAC2 (Homo sapiens, UniProt Q92769); assay: Human HDAC enzyme inhibitor Fluor-de-Lys assay, HDAC2; format: biochemical
# T1 construct: Full length human HDAC2-FLAG was expressed in baculovirus infected Sf9 cells; FLAG (C); made in house; host or cells: Sf9 (baculovirus)
# T1 sequence (Q92769 whole entry): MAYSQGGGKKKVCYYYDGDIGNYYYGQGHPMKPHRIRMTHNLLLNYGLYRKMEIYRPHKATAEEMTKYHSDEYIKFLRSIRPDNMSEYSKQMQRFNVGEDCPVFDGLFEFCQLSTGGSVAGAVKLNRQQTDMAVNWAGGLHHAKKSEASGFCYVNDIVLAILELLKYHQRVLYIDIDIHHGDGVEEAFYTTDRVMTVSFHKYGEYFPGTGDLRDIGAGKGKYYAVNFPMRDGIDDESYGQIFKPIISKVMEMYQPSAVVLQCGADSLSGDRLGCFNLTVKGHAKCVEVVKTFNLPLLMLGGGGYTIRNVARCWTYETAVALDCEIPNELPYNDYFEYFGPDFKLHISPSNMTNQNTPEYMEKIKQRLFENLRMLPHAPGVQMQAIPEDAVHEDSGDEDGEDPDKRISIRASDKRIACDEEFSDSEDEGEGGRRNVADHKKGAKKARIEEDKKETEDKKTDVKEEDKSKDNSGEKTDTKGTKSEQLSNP
# Method in brief: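 Fluor-de-Lys format at room temperature (23° C.): compounds titrated 10-point, 1:3, preincubated with HDAC before substrate addition. Developer with excess HDAC inhibitor ends the reaction, and trypsin-liberated AMC fluorescence is the read-out.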
# KARN cells (Jurkat 2C4) = assay: cells; format: cell-based
# Method in brief: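 Jurkat 2C4 (KARN) cells dosed with test compounds up to 40 μM final, 0.4% DMSO, overnight at 5% CO2; luciferase read by Steady-Glo luminescence after 10 min at room temperature. DMSO set as 0% and 2 μM SAHA as 100% induction; 4-parameter fit of percent activation.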
# Recombinant human HDAC8 = target: T2, Recombinant human HDAC8 (Homo sapiens, UniProt Q9BY41); assay: Human HDAC enzyme inhibitor Fluor-de-Lys assay, HDAC8; format: biochemical
# T2 construct: purchased Enzo Life Sciences BML-SE145-0100
# T2 sequence (Q9BY41 1-377): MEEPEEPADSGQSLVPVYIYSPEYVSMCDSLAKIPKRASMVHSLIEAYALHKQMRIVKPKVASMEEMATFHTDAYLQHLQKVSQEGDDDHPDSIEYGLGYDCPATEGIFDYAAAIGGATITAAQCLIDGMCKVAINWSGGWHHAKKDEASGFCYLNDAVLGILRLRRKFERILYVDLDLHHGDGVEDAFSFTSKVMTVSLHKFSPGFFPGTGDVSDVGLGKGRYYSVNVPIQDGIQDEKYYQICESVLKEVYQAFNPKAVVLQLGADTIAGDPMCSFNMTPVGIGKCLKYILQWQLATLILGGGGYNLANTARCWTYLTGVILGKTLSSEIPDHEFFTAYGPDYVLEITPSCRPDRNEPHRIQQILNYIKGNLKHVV
# [1] = Homo sapiens, Jurkat, read-out: Karn EC50 (nM) 0.1% NHS, 0.1% normal human serum
# [2] = Homo sapiens, Jurkat, read-out: Karn EC50 (nM) 5% NHS, 5% normal human serum
SMILES,IC50 (Recombinant human HDAC2),"EC50 (KARN cells (Jurkat 2C4); read-out: Karn EC50 (nM) 0.1% NHS, 0.1% normal human serum)","EC50 (KARN cells (Jurkat 2C4); read-out: Karn EC50 (nM) 5% NHS, 5% normal human serum)",IC50 (Recombinant human HDAC8),EC50 (KARN cells (Jurkat 2C4); [1]),EC50 (KARN cells (Jurkat 2C4); [2])
CCC(=O)CCCCC[C@H](NC(=O)[C@H]1CC12CCN(C)CC2)c1ncc(-c2cc3ccccc3nc2OC)o1 [Compound 77],4.8 nM,194 nM,311 nM,21.7 µM,,
CCC(=O)CCCCC[C@H](NC(=O)[C@H]1CC12CCN(C)CC2)c1ncc(-c2ccc3cnc(OC)cc3c2)[nH]1 [Compound 113],6.6 nM,,,2.18 µM,58 nM,107 nM
CCC(=O)CCCCC[C@H](NC(=O)C1=NOC2(CCN(C)CC2)C1)c1ncc(-c2ccc3nc(C4CC4)ccc3c2)o1 [Compound 135],43.5 nM,,,18.3 µM,1120 nM,1380 nM
CCC(=O)CCCCC[C@H](NC(=O)[C@H]1CC12CCN(C)CC2)c1ncc(-c2ccc3nc(CC)sc3c2)[nH]1 [Compound 149],3.9 nM,,,2.72 µM,92 nM,73 nM
CCC(=O)CCCCC[C@H](NC(=O)[C@H]1CC12CCN(C)CC2)c1ncc(-c2ccc3ncc(Cl)cc3c2)[nH]1 [Compound 140],4.5 nM,,,4.11 µM,113 nM,155 nM
CCC(=O)CCCCC[C@H](NC(=O)C1=NOC2(CCN(C(C)C)CC2)C1)c1ncc(-c2ccc3nc(C4CC4)ccc3c2)o1 [Compound 136],31.2 nM,,,4.8 µM,2500 nM,
CCN1CCC2(CC1)C[C@@H]2C(=O)N[C@@H](CCCCCC(=O)CC1CC1)c1ncc(-c2cc3ccc(C)nc3cc2OC)[nH]1 [Compound 165],8 nM,,,14.7 µM,140 nM,385 nM
"CCC(=O)CCCCC[C@H](NC(=O)[C@H]1CC12CCN(CC)CC2)c1ncc(-c2ccc(-c3cnc(C4CC4)cn3)cc2)o1 [Compound 129, (1S)—N-[(1S)-1-{5-[4-(5-cyclopropylpyrazin-2-yl)phenyl]-1,3-oxazol-2-yl}-7-oxononyl]-6-ethyl-6-azaspiro[2.5]octane-1-carboxamide]",89 nM,,,7.72 µM,828 nM,1240 nM
CCC(=O)CCCCC[C@H](NC(=O)[C@H]1CC12CCN(C)CC2)c1nc(F)c(-c2cc3ccccc3nc2OC)[nH]1 [Compound 75],101 nM,,,27.3 µM,275 nM,801 nM
CCC(=O)CCCCC[C@H](NC(=O)C1=NOC2(CCN(C)CC2)C1)c1ncc(-c2ccc3nn(C)cc3c2)[nH]1 [Compound 154],19.5 nM,,,12.1 µM,518 nM,476 nM
CCC(=O)CCCCC[C@H](NC(=O)[C@H]1CC12CCN(CC)CC2)c1ncc(-c2ccc3nc(C4CC4)ccc3c2)[nH]1 [Compound 101],< 1.5 nM,,,6.65 µM,41 nM,36 nM
CCC(=O)CCCCC[C@H](NC(=O)C1=NOC2(CCN(CC)CC2)C1)c1ncc(-c2cc3ccc(C)nc3cc2OC)o1 [Compound 204],3.9 nM,,,> 0.9 µM,165 nM,152 nM
CCC(=O)CCCCC[C@H](NC(=O)C1CC2(C1)CN(C)C2)c1ncc(-c2ccc3nn(C)cc3c2)[nH]1 [Compound 147],10.3 nM,,,2.77 µM,3580 nM,2850 nM
"CCC(=O)CCCCC[C@H](NC(=O)C1=NOC2(CCN(C(C)C)CC2)C1)c1ncc(-c2cc3ccccc3nc2OC)[nH]1 [Compound 106, N-{(1S)-1-[5-(2-methoxyquinolin-3-yl)-1H-imidazol-2-yl]-7-oxononyl}-8-(1-methylethyl)-1-oxa-2,8-diazaspiro[4.5]dec-2-ene-3-carboxamide]",7.9 nM,,,2.78 µM,143 nM,1070 nM
"CCC(=O)CCCCC[C@H](NC(=O)C1CN(C)C1)c1ncc(-c2ccc3c(c2)C2CCC3C2)[nH]1 (stereo partly drawn) [Compound 73, 1-methyl-N-{(1S)-7-oxo-1-[5-(1,2,3,4-tetrahydro-1,4-methanonaphthalen-6-yl)-1H-imidazol-2-yl]nonyl}azetidine-3-carboxamide]",138 nM,,,3.07 µM,740 nM,1450 nM
CCC(=O)CCCCC[C@H](NC(=O)[C@H]1CC12CCN(CC1CC1)CC2)c1ncc(-c2ccc3nc(C4CC4)ccc3c2)o1 [Compound 115],2 nM,,,15.4 µM,239 nM,209 nM
"CC(O)C(=O)CCCCC[C@H](NC(=O)[C@H]1CC12CCN(C)CC2)c1nc(-c2ccc(F)cc2)c[nH]1 (stereo partly drawn) [Compound 134, (1S)—N-{(1S)-1-[4-(4-fluorophenyl)-1H-imidazol-2-yl]-8-hydroxy-7-oxononyl}-6-methyl-6-azaspiro[2.5]octane-1-carboxamide]",51.6 nM,,,0.574 µM,2410 nM,2190 nM
CCC(=O)CCCCC[C@H](NC(=O)CN1CCC2(CC1)CC2)c1ncc(-c2ccc3nn(C)cc3c2)[nH]1 [Compound 155],18.4 nM,,,8.13 µM,354 nM,398 nM
CCC(=O)CCCCC[C@H](NC(=O)C1=NOC2(CCN(C)CC2)C1)c1ncc(-c2cc3ccc(C)nc3cc2F)o1 [Compound 221],54.5 nM,,,> 0.9 µM,344 nM,581 nM
CCC(=O)CCCCC[C@H](N)c1ncc(-c2ccc3nc(C)ccc3c2)[nH]1 [Compound 178],386 nM,,,3.26 µM,6790 nM,10400 nM
"C=CCN1CCC2(CC1)C[C@@H]2C(=O)N[C@@H](CCCCCC(=O)CC)c1ncc(-c2cccc3c2C2CCC3N2CC=C)[nH]1 (stereo partly drawn) [Compound 180, (1S)—N-{(1S)-7-oxo-1-[5-(9-prop-2-en-1-yl-1,2,3,4-tetrahydro-1,4-epiminonaphthalen-5-yl)-1H-imidazol-2-yl]nonyl}-6-prop-2-en-1-yl-6-azaspiro[2.5]octane-1-carboxamide]",29.6 nM,,,0.27 µM,371 nM,666 nM
CCC(=O)CCCCC[C@H](NC(=O)[C@H]1CC12CCN(C)CC2)c1ncc(-c2ccc3nc(C4CC4)sc3c2)[nH]1 [Compound 146],3.3 nM,,,7.71 µM,122 nM,112 nM
CCC(=O)CCCCC[C@H](NC(=O)C1=NOC2(CCN(CC3CC3)CC2)C1)c1ncc(-c2cc3ccc(C)nc3cc2OC)[nH]1 [Compound 219],1.8 nM,,,> 0.9 µM,78 nM,101 nM
CCC(=O)CCCCC[C@H](NC(=O)C1CCC2(CC1)CN(C)C2)c1ncc(-c2ccc3nn(C)cc3c2)[nH]1 [Compound 156],15.1 nM,,,5.83 µM,1360 nM,1360 nM
CCC(=O)CCCCC[C@H](NC(=O)[C@H]1CC12CCN(CC)CC2)c1ncc(-c2cc3nn(C)cc3cc2OC)o1 [Compound 189],30 nM,,,27.5 µM,282 nM,300 nM
CCC(=O)CCCCC[C@H](NC(=O)[C@H]1CC12CCN(C)CC2)c1ncc(-c2cc3ccccc3nc2OC)o1 [Compound 125],5.6 nM,,,23.4 µM,154 nM,256 nM
CCC(=O)CCCCC[C@H](NC(=O)C1=NOC2(CCN(C)CC2)C1)c1ncc(-c2cc3ccncc3nc2OC)o1 [Compound 216],34.8 nM,,,> 0.9 µM,194 nM,278 nM
CCC(=O)CCCCC[C@H](NC(=O)[C@H]1CC12CCN(CC)CC2)c1ncc(-c2ccc3c(=O)n(C4CC4)ccc3c2)o1 [Compound 153],13.5 nM,,,> 15 µM,452 nM,447 nM
